Data reported in patent publication US20250345592A1, “BIODEGRADABLE ION PATCH AND METHOD FOR MANUFACTURING THE SAME” (SEOUL NATIONAL UNIVERSITY R&DB FOUNDATION, priority 2023, published 2025).

Type: in vitro ADME
Procedure: To enhance the absorption efficiency of the drug loaded in the provided gel, the current density applied to the ion patch was adjusted. Specifically, caffeine was added to the gelatin gel laminated on the anode of the ion patch, and various current densities of 50, 100, and 150 μA were applied. The amount of caffeine absorbed into the skin was then measured and compared.

For `Cn1c(=O)c2c(ncn2C)n(C)c1=O` [caffeine], the “amount of caffeine absorbed into the skin” value was “highest in the order of 150, 50, and 100 μA current densities”.
